# Legend:
# [1] = biological target: Induced myeloid leukemia cell differentiation protein Mcl-1 (Homo sapiens, UniProt Q07820); assay: Inhibition of MCL-1 (unknown origin) by fluorescence polarization competition assay
# [2] = biological target: Apoptosis regulator Bcl-2 (Homo sapiens, UniProt P10415); assay: Inhibition of BCL-2 (unknown origin) by fluorescence polarization competition assay
# [3] = biological target: Bcl-2-like protein 1 (Homo sapiens, UniProt Q07817); assay: Inhibition of BCL-xL (unknown origin) by fluorescence polarization competition assay
# Sequence of Bcl-2-like protein 1 (Q07817 whole entry): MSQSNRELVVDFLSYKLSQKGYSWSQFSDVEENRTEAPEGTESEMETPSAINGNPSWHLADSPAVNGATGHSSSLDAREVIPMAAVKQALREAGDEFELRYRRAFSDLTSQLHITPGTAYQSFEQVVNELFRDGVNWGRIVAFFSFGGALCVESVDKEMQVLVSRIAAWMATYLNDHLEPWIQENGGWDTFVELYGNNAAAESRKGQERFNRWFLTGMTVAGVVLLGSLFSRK
# Sequence of Apoptosis regulator Bcl-2 (P10415 whole entry): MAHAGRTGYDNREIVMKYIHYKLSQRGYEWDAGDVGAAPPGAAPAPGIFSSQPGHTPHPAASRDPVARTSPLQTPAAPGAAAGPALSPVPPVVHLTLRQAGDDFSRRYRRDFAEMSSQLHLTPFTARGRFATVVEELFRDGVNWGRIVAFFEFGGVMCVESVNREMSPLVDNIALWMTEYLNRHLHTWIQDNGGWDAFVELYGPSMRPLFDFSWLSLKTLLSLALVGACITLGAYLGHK
# Sequence of Induced myeloid leukemia cell differentiation protein Mcl-1 (Q07820 whole entry): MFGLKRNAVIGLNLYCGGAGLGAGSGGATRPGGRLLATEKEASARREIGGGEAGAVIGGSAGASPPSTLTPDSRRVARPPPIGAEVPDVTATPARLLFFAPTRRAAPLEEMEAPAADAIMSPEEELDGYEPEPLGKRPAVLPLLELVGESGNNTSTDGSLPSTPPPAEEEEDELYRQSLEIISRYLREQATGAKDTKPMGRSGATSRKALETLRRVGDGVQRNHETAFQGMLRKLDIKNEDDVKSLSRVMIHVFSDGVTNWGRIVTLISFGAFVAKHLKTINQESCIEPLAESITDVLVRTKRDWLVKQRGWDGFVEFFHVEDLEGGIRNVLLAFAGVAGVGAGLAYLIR
Compound,Ki [1],Ki [2],Ki [3]
Cc1cc(OCCn2nc3ccc(Cl)cc3c2C(=O)O)cc(C)c1Cl,> 10000 nM,–,–
Cc1cc(Oc2ccc(Cn3nc4ccc(Cl)cc4c3C(=O)NS(=O)(=O)c3ccc(NCCN4CCOCC4)c([N+](=O)[O-])c3)cc2)cc(C)c1Cl,1610 nM,420 nM,–
Cc1cc(Oc2ccc(Cn3nc4ccc(Cl)cc4c3C(=O)NS(=O)(=O)c3ccc(NCCc4cccnc4)c([N+](=O)[O-])c3)cc2)cc(C)c1Cl,1460 nM,460 nM,> 10000 nM
Cc1cc(Oc2ccc(Cn3nc4ccc(Cl)cc4c3C(=O)NS(=O)(=O)c3ccc(NCc4ccco4)c([N+](=O)[O-])c3)cc2)cc(C)c1Cl,1300 nM,570 nM,> 10000 nM
Cc1cc(Oc2ccc(Cn3nc4ccc(Cl)cc4c3C(=O)NS(=O)(=O)c3ccc([N+](=O)[O-])c(NCc4cccnc4)c3)cc2)cc(C)c1Cl,1000 nM,1220 nM,> 10000 nM
Cc1cc(Oc2ccc(Cn3nc4ccc(Cl)cc4c3C(=O)NS(=O)(=O)c3ccc(N4CCOCC4)c([N+](=O)[O-])c3)cc2)cc(C)c1Cl,1320 nM,530 nM,7990 nM
Cc1cc(Oc2ccc(Cn3nc4ccc(Cl)cc4c3C(=O)NS(=O)(=O)c3ccc([N+](=O)[O-])c(NCCc4cccnc4)c3)cc2)cc(C)c1Cl,1460 nM,460 nM,> 10000 nM
Cc1cc(Oc2ccc(Cn3nc4ccc(Cl)cc4c3C(=O)NS(=O)(=O)c3ccc([N+](=O)[O-])c(NCc4ccco4)c3)cc2)cc(C)c1Cl,1680 nM,960 nM,> 10000 nM
Cc1cc(Oc2ccc(Cn3nc4ccc(Cl)cc4c3C(=O)NS(=O)(=O)c3ccc(NCc4ccncc4)c([N+](=O)[O-])c3)cc2)cc(C)c1Cl,1650 nM,1520 nM,> 10000 nM
Cc1cc(Oc2ccc(Cn3nc4ccc(Cl)cc4c3C(=O)NS(=O)(=O)c3ccc([N+](=O)[O-])c(NCc4ccncc4)c3)cc2)cc(C)c1Cl,1360 nM,710 nM,> 10000 nM
Cc1cc(OCCCn2nc3ccc(Cl)cc3c2C(=O)O)cc(C)c1Cl,> 10000 nM,–,–
Cc1cc(Oc2ccc(Cn3nc4ccc(Cl)cc4c3C(=O)NS(=O)(=O)c3ccc([N+](=O)[O-])c(NCc4ccn(C)n4)c3)cc2)cc(C)c1Cl,1950 nM,710 nM,7410 nM
Cc1cc(Oc2ccc(Cn3nc4ccc(Cl)cc4c3C(=O)NS(=O)(=O)c3ccc(NCc4ccn(C)n4)c([N+](=O)[O-])c3)cc2)cc(C)c1Cl,1570 nM,600 nM,3450 nM
Cc1cc(Oc2ccc(Cn3nc4ccc(Cl)cc4c3C(=O)NS(=O)(=O)c3ccc([N+](=O)[O-])c(NCCc4ccncc4)c3)cc2)cc(C)c1Cl,1420 nM,770 nM,–
Cc1cc(Oc2ccc(Cn3nc4ccc(Cl)cc4c3C(=O)NS(=O)(=O)c3ccc([N+](=O)[O-])c(NCCc4ccco4)c3)cc2)cc(C)c1Cl,2160 nM,840 nM,> 10000 nM
Cc1cc(Oc2ccc(Cn3nc4ccc(Cl)cc4c3C(=O)NS(=O)(=O)c3ccc([N+](=O)[O-])c(N4CCOCC4)c3)cc2)cc(C)c1Cl,2300 nM,900 nM,6660 nM
Cc1cc(Oc2ccc(Cn3nc(C(=O)O)c4cc(Cl)ccc43)cc2)cc(C)c1Cl,2280 nM,–,–
Cc1cc(Oc2ccc(Cn3nc4ccc(Cl)cc4c3C(=O)NS(=O)(=O)c3ccc(Cl)cc3)cc2)cc(C)c1Cl,1200 nM,510 nM,> 10000 nM
Cc1cc(OCCCn2c(C(=O)O)nc3ccccc32)cc(C)c1Cl,> 10000 nM,–,–
Cc1cc(Oc2ccc(Cn3nc4ccc(Cl)cc4c3C(=O)NS(=O)(=O)c3ccc(NCc4cccnc4)c([N+](=O)[O-])c3)cc2)cc(C)c1Cl,1120 nM,1180 nM,4420 nM
Cc1cc(Oc2ccc(Cn3nc4ccc(Cl)cc4c3C(=O)NS(=O)(=O)c3ccc(NCCc4ccco4)c([N+](=O)[O-])c3)cc2)cc(C)c1Cl,1280 nM,620 nM,3400 nM
Cc1cc(Oc2ccc(Cn3nc4ccc(Cl)cc4c3C(=O)NS(=O)(=O)c3ccc(NCCc4ccncc4)c([N+](=O)[O-])c3)cc2)cc(C)c1Cl,1770 nM,660 nM,> 10000 nM

# Reference: ChEMBL document CHEMBL5104175, “Scaffold hopping from indoles to indazoles yields dual MCL-1/BCL-2 inhibitors from MCL-1 selective leads” (RSC Med Chem, 2022)
